According to patent publication US9394261B2, “Aryl amine substituted pyrimidine and quinazoline and their use as anticancer drugs” (National Yang-Ming University, priority 2012, dated 2016):

System: SK-Hep-1 cell lines (a hepatocellular carcinoma (HCC) cell)
Test: MTT assay, growth inhibition of SK-Hep-1 cells
Assay type: cell-based
Details: for IC50: SK-Hep-1 cells, 48 hours; for growth-inhibitory activity (MTT), in words: SK-Hep-1 (HCC) cells
Procedure: MTT assay was used to measure growth inhibition. […] MTT (3-(4,5-dimethylthiazol-2-yl)-2,5-diphenyl tetrazolium bromide) assay was performed as follow.
The effect of individual test compounds on cell viability was assessed by using the MTT in 6 replicates. Sk-Hep-1 cells were seeded and incubated in 96-well, flat-bottomed plates for 24 hours, and were exposed to various concentrations of test compounds dissolved in DMSO (final concentration, 0.1%) for 48 hours. Controls received DMSO vehicle at a concentration equal to that in drug-treated cells. The medium was removed, replaced by 200 μL of 0.5 mg/mL MTT in 10% fetal bovine serum containing DMEM (Dulbecco's Modified Eagle Medium), and cells were incubated in the carbon dioxide incubator at 37° C. for 2 hours. Supernatants were removed from the wells and the reduced MTT dye was solubilized in 100 μL/well DMSO. Absorbance at 570 nm was determined on a plate reader.
The SK-Hep1 cells were then analyzed with western blot assay and MTT assay.

| SMILES | IC50 (Homo sapiens, SK-HEP1, 48 h) [µM] | IC50 [µM] | growth-inhibitory activity (MTT), in words |
| --- | --- | --- | --- |
| C#Cc1cccc(Nc2ccnc(Cl)n2)c1 [Compound 1, 2-Chloro-N-(3-ethynylphenyl)pyrimidin-4-amine] | > 40 |  |  |
| Clc1cccc(Nc2ccnc(Cl)n2)c1 [Compound 2, 2-Chloro-N-(3-chlorophenyl)pyrimidin-4-amine] | > 40 |  |  |
| FC(F)(F)c1cc(Nc2ccnc(Cl)n2)ccc1Cl [Compound 3, 2-Chloro-N-(4-chloro-3-(trifluoromethyl)phenyl)pyrimidin-4-amine] | > 40 |  |  |
| Clc1nccc(NCc2ccccc2)n1 [Compound 5, N-Benzyl-2-chloropyrimidin-4-amine] | > 40 |  |  |
| C#Cc1cccc(Nc2ccnc(Nc3cccc(C#C)c3)n2)c1 [Compound 6, N^2,N^4-Bis(3-ethynylphenyl)pyrimidine-2,4-diamine] | < 10 |  | more potent anti-tumor activity than the mono-substituted pyrimidine derivatives |
| FC(F)(F)c1cc(Nc2ccnc(Nc3ccc(Cl)c(C(F)(F)F)c3)n2)ccc1Cl [Compound 7, N^2,N^4-Bis(4-chloro-3-(trifluoromethyl)phenyl)pyrimidine-2,4-diamine] | 10 to 20 |  | more potent anti-tumor activity than the mono-substituted pyrimidine derivatives |
| COc1cc2nc(Cl)nc(Nc3ccc(Oc4ccccc4)cc3)c2cc1OC [Compound 14, 2-Chloro-6,7-dimethoxy-N-(4-phenoxyphenyl)quinazoline-4-amine] | 10 to 20 | 15.3 ± 0.6 |  |
| C#Cc1cccc(Nc2nc(Nc3ccc(Cl)c(C(F)(F)F)c3)nc3cc(OC)c(OC)cc23)c1 [Compound 18, N^2-(4-Chloro-3-(trifluoromethyl)phenyl)-N^4-(3-ethynylphenyl)-6,7-dimethoxy-quinazoline-2,4-diamine] | < 10 |  |  |
| C#Cc1cccc(Nc2nc(Nc3cccc(Oc4ccc(C#N)cc4)c3)nc3cc(OC)c(OC)cc23)c1 [Compound 23, 4-(3-(4-(3-Ethynylphenylamino)-6,7-dimethoxyquinazolin-2-ylamino)phenoxy)benzonitrile] |  | 3.9 |  |
| C#Cc1cccc(Nc2nc(Nc3ccc(Oc4ccc(C#N)cc4)cc3)nc3cc(OC)c(OC)cc23)c1 [Compound 24, 4-(4-(4-(3-Ethynylphenylamino)-6,7-dimethoxyquinazolin-2-ylamino)phenoxy)benzonitrile] | 10 to 20 | 14.5 |  |

Continued, in another order:

| IC50 (Homo sapiens, SK-HEP1, 48 h) [µM] | IC50 [µM] | SMILES | growth-inhibitory activity (MTT), in words |
| --- | --- | --- | --- |
| 10 to 20 | 12.3 ± 0.6 | C#Cc1cccc(N(C)c2nc(Cl)nc3cc(OC)c(OC)cc23)c1 [Compound 9, 2-Chloro-N-(3-ethynylphenyl)-6,7-dimethoxy-N-methyl quinazoline-4-amine] |  |
| 10 to 20 |  | COc1cc2nc(Cl)nc(Nc3cccc(Cl)c3)c2cc1OC [Compound 10, 2-Chloro-N-(3-chlorophenyl)-6,7-dimethoxyquinazoline-4-amine] |  |
| > 40 |  | COc1cc2nc(Cl)nc(Nc3cccc(O)c3)c2cc1OC [Compound 11, 3-(2-Chloro-6,7-dimethoxyquinazoline-4-ylamino)phenol] |  |
| > 40 |  | COc1cc2nc(Cl)nc(Nc3cc(C)ccc3F)c2cc1OC [Compound 12, 2-Chloro-N-(2-fluoro-5-methylphenyl)-6,7-dimethoxy quinazoline-4-amine] |  |
| > 40 |  | COc1cc2nc(Cl)nc(Nc3ccc(O)cc3C)c2cc1OC [Compound 15, 4-(2-Chloro-6,7-dimethoxyquinazoline-4-ylamino)-3-methylphenol] |  |
| > 40 |  | COc1cc2nc(Cl)nc(Nc3cccc(Oc4ccc(C#N)cc4)c3)c2cc1OC [Compound 16, 4-(3-(2-Chloro-6,7-dimethoxyquinazoline-4-ylamino)phenoxy)benzonitrile] |  |
| 10 to 20 |  | COc1cc2nc(Cl)nc(NCc3ccccc3)c2cc1OC [Compound 17, N-Benzyl-2-chloro-6,7-dimethoxyquinazoline-4-amine] |  |
| < 10 |  | C#Cc1cccc(Nc2nc(Nc3cccc(Cl)c3)nc3cc(OC)c(OC)cc23)c1 [Compound 20, N^2-(3-Chlorophenyl)-N^4-(3-ethynylphenyl)-6,7-dimethoxy quinazoline-2,4-diamine] |  |
